In patent publication US20220372040A1, “METTL3 MODULATORS” (Accent Therapeutics, Inc., priority 2020, published 2022) one finds IC50 data, which are given here for 26 compounds.

One assay deals with METTL3/METTL14 (Homo sapiens, UniProt Q86U44). As to the kind of experiment: METTL3-14 standard enzyme assay (3H-SAM flashplate scintillation). The assay is classed as biochemical. The following applies: METTL3/METTL14 2.5 nM, RNA 100 nM, 3H-SAM 100 nM, 30 min. Summed up:
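Radiometric methylation readout: biotinylated RNA substrate UCUGGACUAAA and 3H-SAM, each 100 nM final, reacted 30 min at ambient temperature with 2.5 nM enzyme complex after 5 min compound preincubation (HEPES pH 7.5 buffer, KCl, MgCl2, DTT). Excess unlabelled SAM (15 μM) stopped reactions before streptavidin flashplate capture.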

The next assay addresses T1, METTL16 (Homo sapiens, UniProt Q86W50).
T1 sequence (Q86W50 1-562): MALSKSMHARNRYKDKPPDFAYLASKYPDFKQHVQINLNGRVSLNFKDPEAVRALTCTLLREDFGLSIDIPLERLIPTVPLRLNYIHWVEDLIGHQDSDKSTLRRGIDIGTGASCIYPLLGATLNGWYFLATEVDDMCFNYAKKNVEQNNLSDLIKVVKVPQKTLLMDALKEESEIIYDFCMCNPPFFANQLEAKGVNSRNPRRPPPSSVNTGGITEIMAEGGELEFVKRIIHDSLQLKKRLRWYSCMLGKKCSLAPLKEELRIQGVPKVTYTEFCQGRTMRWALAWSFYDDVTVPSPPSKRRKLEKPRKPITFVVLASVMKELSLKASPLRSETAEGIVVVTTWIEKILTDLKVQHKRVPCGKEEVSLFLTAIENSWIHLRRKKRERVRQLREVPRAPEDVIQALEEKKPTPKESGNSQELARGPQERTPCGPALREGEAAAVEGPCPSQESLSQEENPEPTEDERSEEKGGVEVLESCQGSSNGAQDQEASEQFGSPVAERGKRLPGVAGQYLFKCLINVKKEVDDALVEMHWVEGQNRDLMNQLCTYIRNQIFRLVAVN
As to the kind of experiment: METTL16 assay (3H-SAM flashplate scintillation). The assay is classed as biochemical. To be noted: METTL16 100 nM, RNA 50 nM, 3H-SAM 200 nM, SAM 800 nM, 20 min. The procedure:
Assays were performed in a 25 μl-volume in 384-well V-bottom polypropylene microplates (Greiner Bio-One, cat. No. 781280) at ambient temperature. Optimized 1× assay buffer was 20 mM HEPES pH 7.5, 50 mM KCl, 1 mM DTT, 0.01% Tween, 0.01% BSG, 0.004 U/μl RNAseOUT (cat. No. 10777019, ThermoFisher Scientific, Waltham, Mass.). For compound screening METTL16 (final concentration, f.c.=100 nM) was added using a Multidrop Combi (ThermoFisher Scientific, Waltham, Mass.) and preincubated for 5 min. Reactions were started by adding 3′ biotinylated RNA ([…]-biotin) (f.c.=50 nM), 3H-SAM (f.c.=200 nM) and non-radiolabeled SAM (f.c.=800 nM) substrates. Reactions proceeded for 20 minutes and were quenched with excess non-radioactive SAM (f.c.=100 μM). The reactions were then transferred to streptavidin-coated flashplates and incubated for 2 hours at 25° C. Following two washing cycles with 0.1% Tween-20, the plates were sealed and read on a TopCount (PerkinElmer, Waltham, Mass.) plate-based scintillation counter. For determination of kinetic parameters, reaction times were optimized so that measurements were taken during the initial velocity phase of the reaction.

A further assay concerns the target PRMT5-MEP50 (Homo sapiens, UniProt O14744). As to the kind of experiment: PRMT5 assay (3H-SAM flashplate scintillation). The assay is classed as biochemical. To be noted: PRMT5-MEP50 2.5 nM, histone H4 peptide 100 nM, 3H-SAM 250 nM, 60 min. Summed up: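 Radiometric methyltransferase read-out: after 60 min reaction, excess unlabelled SAM (15 μM) stops turnover and biotinylated H4 peptide (100 nM) carrying 3H-methyl from 250 nM 3H-SAM is captured on streptavidin flashplates (2 h, 25° C) for scintillation counting. Enzyme, 2.5 nM PRMT5-MEP50, was preincubated 5 min with compound in pH 8.0 Tris buffer with DTT and Tween.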

A further assay concerns the target METTL1/WDR4 (Homo sapiens, UniProt Q9UBP6). As to the kind of experiment: METTL1 assay (3H-SAM flashplate scintillation). The class given is biochemical. The following applies: METTL1/WDR4 6.25 nM, RNA 25 nM, 3H-SAM 60 nM, 20 min; read-out: METTL1 IC50. Summed up:
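Radiometric methyltransfer by METTL1/WDR4 (6.25 nM f.c., 5 min preincubation) at ambient temperature in HEPES pH 7.5, KCl, MgCl2, DTT; started with 25 nM 3′-biotinylated RNA and 60 nM 3H-SAM, run 20 min, quenched with 15 μM cold SAM. Product captured on streptavidin flashplates (2 h, 25° C), counted by scintillation.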

In another assay the test system is MOLM-13 cells. As to the kind of experiment: MOLM-13 96 Hour cell proliferation assay (Cell Titer-Glo). The following applies: Homo sapiens. The assay is classed as cell-based. As to the method:
MOLM-13 96 Hour Cell Proliferation Assay
MOLM-13 (DSMZ) cells were seeded at 600 cells per well in a volume of 44 μL in a Greiner Bio-One CELLSTAR™ 384 Well Polystyrene Cell Culture clear bottom microplate in RPMI 1640 media containing 10% fetal bovine serum using a Multidrop Combi (ThermoFisher Scientific). Cells were incubated overnight at 37° C. in a humidified tissue culture incubator. To prevent evaporation or to reduce edge effect, add 50 μL or more H2O to an empty plate, cover, and place on top of the cell plates. The Mosquito® HTS Liquid Handler was used to make a compound/media intermediate plate by aliquoting 1 μL of compound from the initial compound dilution plate (concentrations ranging from 10.0 mM to 38.0 nM in 100% DMSO) into Bio-One 384-well polypropylene conical bottom microplate containing 49 μL of media containing the appropriate serum (50-fold dilution, 2% DMSO, compound concentrations ranging from 200.0 μM and […]). The Apricot liquid handling system was used to transfer 6.2 μL compounds from the intermediate plate into the seeding plate containing 44 μL cells (8-fold dilution spanning concentrations 25.0 μM to […], 0.25% DMSO final), and placed in a humidified tissue culture incubator at 37° C. After 96 hours, 25 μL of Cell Titer-Glo reagent (Promega) was added to each well using an Integra liquid handling system. The plate was protected from light using TopSeal-A (Black) film over the entire plate, added White Bottom seal film on the bottom of the entire plate for a better reading on the Envision, and placed on an IKA plate shaker for at 300 rpm for 10 minutes at room temperature. The plate was read on an EnVision plate reader (Perkin Elmer) using the Ultra Sensitive Luminescence protocol. Data analysis was performed by normalizing the raw luminescence units to an average of the positive control values for staurosporine (100% cell death) and the negative control values for DMSO (0% cell death). An IC50 was calculated using a 4-parameter logistic nonlinear regression model in GraphPad Prism.

METTL1/WDR4, sequence (Q9UBP6 whole entry, species assumed): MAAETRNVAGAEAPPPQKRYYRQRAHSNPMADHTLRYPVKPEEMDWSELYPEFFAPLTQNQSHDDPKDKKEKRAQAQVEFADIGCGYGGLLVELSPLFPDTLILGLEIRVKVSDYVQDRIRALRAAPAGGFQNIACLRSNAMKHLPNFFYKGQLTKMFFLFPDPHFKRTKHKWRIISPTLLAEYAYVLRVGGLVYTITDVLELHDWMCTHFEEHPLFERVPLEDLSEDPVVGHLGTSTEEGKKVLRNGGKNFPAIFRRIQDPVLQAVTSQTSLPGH
METTL1/WDR4, sequence (P57081 whole entry partner, species assumed): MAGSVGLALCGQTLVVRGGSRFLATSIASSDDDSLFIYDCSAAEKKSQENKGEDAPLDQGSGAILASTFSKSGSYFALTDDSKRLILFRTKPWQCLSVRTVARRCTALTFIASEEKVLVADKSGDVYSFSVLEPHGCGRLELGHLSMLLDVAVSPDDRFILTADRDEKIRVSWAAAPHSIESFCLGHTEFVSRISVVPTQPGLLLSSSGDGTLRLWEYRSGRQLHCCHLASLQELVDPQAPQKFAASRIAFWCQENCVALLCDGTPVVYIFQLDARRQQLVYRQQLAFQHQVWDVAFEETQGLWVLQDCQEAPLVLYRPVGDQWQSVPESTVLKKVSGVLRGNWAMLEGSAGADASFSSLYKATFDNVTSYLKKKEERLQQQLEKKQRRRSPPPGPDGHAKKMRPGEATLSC
PRMT5-MEP50, sequence (O14744 whole entry): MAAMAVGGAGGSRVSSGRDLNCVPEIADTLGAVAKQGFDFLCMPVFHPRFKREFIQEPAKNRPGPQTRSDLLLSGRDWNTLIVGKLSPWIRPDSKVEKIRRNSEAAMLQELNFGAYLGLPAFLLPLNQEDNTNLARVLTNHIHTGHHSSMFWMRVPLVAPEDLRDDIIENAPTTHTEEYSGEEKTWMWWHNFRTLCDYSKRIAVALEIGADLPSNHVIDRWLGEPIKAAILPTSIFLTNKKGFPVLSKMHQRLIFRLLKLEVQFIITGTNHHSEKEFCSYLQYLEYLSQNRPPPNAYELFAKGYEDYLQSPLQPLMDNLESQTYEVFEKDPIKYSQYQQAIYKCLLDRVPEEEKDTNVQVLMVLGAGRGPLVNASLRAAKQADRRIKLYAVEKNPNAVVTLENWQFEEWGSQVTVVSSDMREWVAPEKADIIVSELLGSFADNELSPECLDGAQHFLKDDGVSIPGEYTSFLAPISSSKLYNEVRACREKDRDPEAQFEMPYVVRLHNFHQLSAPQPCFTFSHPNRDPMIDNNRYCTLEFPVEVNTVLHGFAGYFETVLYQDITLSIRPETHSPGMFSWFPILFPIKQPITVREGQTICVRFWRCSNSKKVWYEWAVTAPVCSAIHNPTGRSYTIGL
PRMT5-MEP50, sequence (Q9BQA1 whole entry partner): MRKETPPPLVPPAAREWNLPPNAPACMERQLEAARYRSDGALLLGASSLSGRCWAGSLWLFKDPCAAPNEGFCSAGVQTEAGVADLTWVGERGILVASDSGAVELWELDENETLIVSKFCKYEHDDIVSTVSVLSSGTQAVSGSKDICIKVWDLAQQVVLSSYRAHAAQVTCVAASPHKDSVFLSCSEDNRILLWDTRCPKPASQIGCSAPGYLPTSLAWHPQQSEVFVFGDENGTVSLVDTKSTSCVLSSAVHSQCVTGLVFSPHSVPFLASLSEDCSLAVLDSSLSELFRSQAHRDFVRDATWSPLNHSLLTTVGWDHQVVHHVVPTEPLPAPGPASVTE
METTL3/METTL14, sequence (Q86U44 whole entry, species assumed): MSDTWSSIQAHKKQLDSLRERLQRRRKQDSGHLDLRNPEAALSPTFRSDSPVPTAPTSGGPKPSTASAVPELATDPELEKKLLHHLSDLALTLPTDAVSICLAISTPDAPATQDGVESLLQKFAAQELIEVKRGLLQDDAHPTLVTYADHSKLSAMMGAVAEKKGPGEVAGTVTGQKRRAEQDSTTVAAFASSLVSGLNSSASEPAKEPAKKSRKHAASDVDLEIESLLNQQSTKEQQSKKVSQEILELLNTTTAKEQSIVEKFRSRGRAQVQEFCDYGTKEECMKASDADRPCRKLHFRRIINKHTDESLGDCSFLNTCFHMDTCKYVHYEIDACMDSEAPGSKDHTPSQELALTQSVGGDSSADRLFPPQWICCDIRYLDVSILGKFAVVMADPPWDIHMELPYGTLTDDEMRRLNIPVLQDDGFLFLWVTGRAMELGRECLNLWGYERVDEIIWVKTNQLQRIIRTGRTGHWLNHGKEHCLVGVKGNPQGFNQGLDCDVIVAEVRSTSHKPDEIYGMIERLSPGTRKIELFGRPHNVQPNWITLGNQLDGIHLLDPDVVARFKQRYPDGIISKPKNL
METTL3/METTL14, sequence (Q9HCE5 whole entry partner, species assumed): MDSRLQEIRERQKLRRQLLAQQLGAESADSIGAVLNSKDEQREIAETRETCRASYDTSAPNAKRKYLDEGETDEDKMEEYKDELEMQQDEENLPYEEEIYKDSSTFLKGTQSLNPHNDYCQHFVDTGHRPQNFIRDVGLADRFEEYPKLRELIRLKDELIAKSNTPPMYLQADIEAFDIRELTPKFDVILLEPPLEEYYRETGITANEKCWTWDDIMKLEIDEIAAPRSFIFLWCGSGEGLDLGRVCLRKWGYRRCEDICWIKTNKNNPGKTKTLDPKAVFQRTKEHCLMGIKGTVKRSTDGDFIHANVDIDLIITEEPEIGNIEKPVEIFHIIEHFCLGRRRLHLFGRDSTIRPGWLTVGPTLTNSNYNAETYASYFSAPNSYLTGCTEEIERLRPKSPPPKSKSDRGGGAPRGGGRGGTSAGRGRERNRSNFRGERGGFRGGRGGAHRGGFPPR

On to `CNc1ccc2ccc(OCc3cc(O)cc(-n4cc(Cl)c5c(N)ncnc54)c3)cc2n1` [Compound I-81], for which the IC50 (as a rule, the concentration needed to halve the response being measured) against METTL3/METTL14 is 10 to 100 nM; against METTL16, above 1000 nM; against PRMT5-MEP50, above 1000 nM; at METTL1/WDR4, above 1000 nM.

As to `CNc1ccc2ccc(OCc3cccc(-n4cc(Cl)c5c(N)ncnc54)n3)cc2n1` [Compound I-84], the IC50 was 10 to 100 nM on METTL3/METTL14, above 1000 nM against METTL16, above 1000 nM at PRMT5-MEP50 and above 1000 nM on METTL1/WDR4.

On to `CNc1ccc2ccc(OCc3ccnc(-n4cc(Cl)c5c(N)ncnc54)c3)cc2n1` [Compound I-85], for which the IC50 at METTL3/METTL14 is 100 to 1000 nM; at METTL16, above 1000 nM; against PRMT5-MEP50, above 1000 nM; at METTL1/WDR4, above 1000 nM.

As to `CNc1ccc2ccc(OCc3cccc(-n4cc(C5CCCC5)c5c(N)ncnc54)c3)cc2n1` [Compound I-86], the IC50 on METTL3/METTL14 is 10 to 100 nM; against METTL16, above 1000 nM; at PRMT5-MEP50 it was above 1000 nM; at METTL1/WDR4, above 1000 nM.

Take `CCc1cc(N2CCN(C)CC2)c2ccc(OCc3cncc(-n4ccc5c(N)ncnc54)c3)cc2n1` [Compound I-107]: the IC50 was below 1000 nM with MOLM-13 cells, below 10 nM against METTL3/METTL14 and above 1000 nM against PRMT5-MEP50.

With `CCc1cc(N2CCCC2)c2ccc(OCc3cncc(-n4ccc5c(N)ncnc54)c3)cc2n1` [Compound I-109], the IC50 in the assay with MOLM-13 cells was below 1000 nM; at METTL3/METTL14, below 10 nM; at PRMT5-MEP50, above 1000 nM.

Regarding `CNc1ccc2ccc(OCc3cc(C#N)cc(-n4ccc5c(N)ncnc54)c3)cc2n1` [Compound I-119], the IC50 against METTL3/METTL14 is 100 to 1000 nM; against METTL16 it was above 1000 nM; against PRMT5-MEP50 it was above 1000 nM; on METTL1/WDR4 it was above 1000 nM.

For the compound `C[C@H]1CCN1c1ccc2ccc(OCc3cncc(-n4cc(C5CCCC5)c5c(N)ncnc54)c3)cc2n1` [Compound I-125], the IC50 is 10 to 100 nM at METTL3/METTL14, above 1000 nM against METTL16, above 1000 nM against PRMT5-MEP50 and above 1000 nM at METTL1/WDR4.

Turning to `CCCc1cc(N)c2ccc(CCc3cncc(-n4cc(-c5ccn(C)n5)c5c(N)ncnc54)c3)cc2n1` [Compound I-131], the IC50 in the assay with MOLM-13 cells was below 1000 nM; against METTL3/METTL14, below 10 nM.

On to `CCc1cc(NCCOC)c2ncc(CCc3cncc(-n4cc(-c5ccn(C)n5)c5c(N)ncnc54)c3)cc2n1` [Compound I-132], for which the IC50 with MOLM-13 cells was below 1000 nM; against METTL3/METTL14, below 10 nM.

Take `CCNc1ccc2ccc(OCc3cncc(-n4cc([C@H]5CCCO5)c5c(N)ncnc54)c3)cc2n1` [Compound I-134]: the IC50 in the assay on MOLM-13 cells is below 1000 nM; against METTL3/METTL14 it was below 10 nM.

For `CCc1cc(NCCOC)c2ccc(OCc3cncc(-n4cc([C@@H]5CCCO5)c5c(N)ncnc54)c3)cc2n1` [Compound I-141], the IC50 was below 1000 nM in the assay on MOLM-13 cells and below 10 nM against METTL3/METTL14.

In the case of `CCc1cc(N2CCOCC2)c2ccc(OCc3cncc(-n4cc([C@H]5CCCO5)c5c(N)ncnc54)c3)cc2n1` [Compound I-142], the results for the IC50 in the assay with MOLM-13 cells and on METTL3/METTL14 were below 1000 nM and 10 to 100 nM, respectively.

In the case of `CCc1cc(N2CCOCC2)c2ccc(OCc3cncc(-n4cc([C@@H]5CCCO5)c5c(N)ncnc54)c3)cc2n1` [Compound I-143], the figures for the IC50 with MOLM-13 cells and against METTL3/METTL14 were below 1000 nM and below 10 nM, respectively.

Regarding `Nc1ncnc2c1c([C@H]1CCCO1)cn2-c1cncc(COc2ccc3ccc(N4CCC4)nc3c2)c1` [Compound I-144], the IC50 was below 1000 nM in the assay with MOLM-13 cells and below 10 nM against METTL3/METTL14.

Regarding `CCNc1ccc2ccc(OCc3cncc(-n4cc([C@@H]5CCCO5)c5c(N)ncnc54)c3)cc2n1` [Compound I-146], the IC50 in the assay with MOLM-13 cells is below 1000 nM; against METTL3/METTL14 it was below 10 nM.

In the case of `CCc1cc(N2CCNCC2)c2ccc(OCc3cncc(-n4cc([C@@H]5CCCO5)c5c(N)ncnc54)c3)cc2n1` [Compound I-149], the values for the IC50 with MOLM-13 cells and at METTL3/METTL14 were 1000 to 10000 nM and below 10 nM, respectively.

Regarding `CCc1cc(N2CCOCC2)c2ncc(OCc3cncc(-n4cc(-c5ccn(C)n5)c5c(N)ncnc54)c3)cc2n1` [Compound I-150], the half-inhibitory concentration (IC50) in the assay on MOLM-13 cells was below 1000 nM; at METTL3/METTL14, below 10 nM.

With `CCc1cc(NCCOC)c2ncc(OCc3cncc(-n4cc([C@@H]5CCCO5)c5c(N)ncnc54)c3)cc2n1` [Compound I-152], the figures for the IC50 with MOLM-13 cells and against METTL3/METTL14 were below 1000 nM and below 10 nM, respectively.

As to `CCc1cc(NC)c2ccc(OCc3cncc(-n4cc(-c5ccn(CCOC)n5)c5c(N)ncnc54)c3)cc2n1` [Compound I-154], the IC50 with MOLM-13 cells is below 1000 nM; at METTL3/METTL14, below 10 nM.

Turning to `CCNc1ccc2ccc(CCc3cncc(-n4cc([C@H]5CCCO5)c5c(N)ncnc54)c3)cc2n1` [Compound I-156], the IC50 was 1000 to 10000 nM in the assay on MOLM-13 cells and below 10 nM against METTL3/METTL14.

For the compound `CCc1cc(N(C)C2CC2)c2ccc(OCc3cncc(-n4cc([C@@H]5CCCO5)c5c(N)ncnc54)c3)cc2n1` [Compound I-167], the IC50 is below 1000 nM in the assay with MOLM-13 cells and below 10 nM at METTL3/METTL14.

Regarding `CNc1ccc2ccc(OCc3cccc(-n4ccc5c(N)ncnc54)c3F)cc2n1` [Compound I-226], the IC50 was 10 to 100 nM against METTL3/METTL14, above 1000 nM at METTL16, above 1000 nM on PRMT5-MEP50 and above 1000 nM on METTL1/WDR4.

Regarding `CCc1cc(NCCOC)c2c(F)cc(CCc3cncc(-n4cc(-c5ccn(C)n5)c5c(N)ncnc54)c3)cc2n1` [Compound I-228], the IC50 is below 1000 nM in the assay with MOLM-13 cells and below 10 nM against METTL3/METTL14.

For the compound `CCc1cc(NCCOC)c2c(F)cc(OCc3cncc(-n4cc(-c5ccn(C)n5)c5c(N)ncnc54)c3)cc2n1` [Compound I-229], the IC50 is below 1000 nM with MOLM-13 cells and below 10 nM on METTL3/METTL14.

On to `COCc1cn(-c2cncc(COc3ccc4ccc(N5CCC5)nc4c3)c2)c2ncnc(N)c12` [Compound I-237], for which the IC50 was 1000 to 10000 nM with MOLM-13 cells and below 10 nM at METTL3/METTL14.
